Laboratory results: ChEMBL document CHEMBL4507290 (2021)

Key:
[1] = target: Dual specificity mitogen-activated protein kinase kinase 3 (Homo sapiens) (UniProt P46734); conditions: Compound concentration 1000.0 nM
[2] = target: Tyrosine-protein kinase ZAP-70 (Homo sapiens) (UniProt P43403); conditions: Compound concentration 1000.0 nM
[3] = target: D(1A) dopamine receptor (Homo sapiens) (UniProt P21728); conditions: Compound concentration 10.0 uM
[4] = target: Dual specificity tyrosine-phosphorylation-regulated kinase 2 (Homo sapiens) (UniProt Q92630); conditions: Compound concentration 1000.0 nM
[5] = target: Dual specificity mitogen-activated protein kinase kinase 1 (Homo sapiens) (UniProt Q02750); conditions: Compound concentration 1000.0 nM
[6] = target: Serine/threonine-protein kinase D2 (Homo sapiens) (UniProt Q9BZL6); conditions: Compound concentration 1000.0 nM
[7] = target: cGMP-dependent protein kinase 2 (Homo sapiens) (UniProt Q13237); conditions: Compound concentration 1000.0 nM
[8] = target: Proto-oncogene tyrosine-protein kinase receptor Ret (Homo sapiens) (UniProt P07949); conditions: Compound concentration 1000.0 nM
[9] = tested on: Tyrosine-protein kinase ABL1 (Homo sapiens), P00519 [H396P]; conditions: Compound concentration 1000.0 nM
[10] = target: Ribosomal protein S6 kinase alpha-5 (Homo sapiens) (UniProt O75582); conditions: Compound concentration 1000.0 nM
[11] = tested on: Epidermal growth factor receptor (Homo sapiens), P00533 [UNDEFINED MUTATION]; conditions: Compound concentration 1000.0 nM
[12] = target: Receptor tyrosine-protein kinase erbB-4 (Homo sapiens) (UniProt Q15303); conditions: Compound concentration 1000.0 nM
[13] = target: Serine/threonine-protein kinase Nek10 (Homo sapiens) (UniProt Q6ZWH5); conditions: Compound concentration 1000.0 nM
[14] = target: Epithelial discoidin domain-containing receptor 1 (Homo sapiens) (UniProt Q08345); conditions: Compound concentration 1000.0 nM
[15] = target: Serine/threonine-protein kinase MARK2 (Homo sapiens) (UniProt Q7KZI7); conditions: Compound concentration 1000.0 nM
[16] = target: GABA-A receptor; anion channel (Rattus norvegicus) (UniProt O09028+P15431+P18506+P18508+P19969+P20236+P23574+P23576+P28471+P28473+P30191+P62813+P63079+P63138+Q91ZM7+Q9ES14); conditions: Compound concentration 10.0 uM
[17] = target: Beta-1 adrenergic receptor (Homo sapiens) (UniProt P08588); conditions: Compound concentration 10.0 uM
[18] = target: Serine/threonine-protein kinase Nek2 (Homo sapiens) (UniProt P51955); conditions: Compound concentration 1000.0 nM
[19] = target: Calcium/calmodulin-dependent protein kinase kinase 2 (Homo sapiens) (UniProt Q96RR4); conditions: Compound concentration 1000.0 nM
[20] = target: Mitogen-activated protein kinase kinase kinase kinase 5 (Homo sapiens) (UniProt Q9Y4K4); conditions: Compound concentration 1000.0 nM
[21] = target: Casein kinase I isoform gamma-2 (Homo sapiens) (UniProt P78368); conditions: Compound concentration 1000.0 nM
[22] = target: Cytoplasmic tyrosine-protein kinase BMX (Homo sapiens) (UniProt P51813); conditions: Compound concentration 1000.0 nM
[23] = target: Tyrosine-protein kinase SYK (Homo sapiens) (UniProt P43405); conditions: Compound concentration 1000.0 nM
[24] = target: Serine/threonine-protein kinase PRP4 homolog (Homo sapiens) (UniProt Q13523); conditions: Compound concentration 1000.0 nM
[25] = tested on: Receptor-type tyrosine-protein kinase FLT3 (Homo sapiens), P36888 [UNDEFINED MUTATION]; conditions: Compound concentration 1000.0 nM
[26] = target: Mitogen-activated protein kinase 13 (Homo sapiens) (UniProt O15264); conditions: Compound concentration 1000.0 nM
[27] = target: Protein kinase C iota type (Homo sapiens) (UniProt P41743); conditions: Compound concentration 1000.0 nM
[28] = target: Testis-specific serine/threonine-protein kinase 3 (Homo sapiens) (UniProt Q96PN8); conditions: Compound concentration 1000.0 nM
[29] = target: Ribosomal protein S6 kinase alpha-5 (Homo sapiens) (UniProt O75582); conditions: Compound concentration 1000.0 nM; remark: listed apart in the source
[30] = target: Serine/threonine-protein kinase TAO2 (Homo sapiens) (UniProt Q9UL54); conditions: Compound concentration 1000.0 nM
[31] = tested on: Proto-oncogene tyrosine-protein kinase receptor Ret (Homo sapiens), P07949 [M918T]; conditions: Compound concentration 1000.0 nM
[32] = target: Mast/stem cell growth factor receptor Kit (Homo sapiens) (UniProt P10721); conditions: Compound concentration 1000.0 nM
[33] = target: TGF-beta receptor type-2 (Homo sapiens) (UniProt P37173); conditions: Compound concentration 1000.0 nM
[34] = target: Ephrin type-B receptor 2 (Homo sapiens) (UniProt P29323); conditions: Compound concentration 1000.0 nM
[35] = tested on: Tyrosine-protein kinase ABL1 (Homo sapiens), P00519 [Y253F]; conditions: Compound concentration 1000.0 nM
[36] = tested on: Mast/stem cell growth factor receptor Kit (Homo sapiens), P10721 [L576P]; conditions: Compound concentration 1000.0 nM
[37] = tested on: Phosphatidylinositol 4,5-bisphosphate 3-kinase catalytic subunit alpha isoform (Homo sapiens), P42336 [H1047L]; conditions: Compound concentration 1000.0 nM
[38] = target: Receptor tyrosine-protein kinase erbB-3 (Homo sapiens) (UniProt P21860); conditions: Compound concentration 1000.0 nM
[39] = target: Serine/threonine-protein kinase 17B (Homo sapiens) (UniProt O94768); conditions: Compound concentration 1000.0 nM
[40] = tested on: Receptor-type tyrosine-protein kinase FLT3 (Homo sapiens), P36888 [K663Q]; conditions: Compound concentration 1000.0 nM
[41] = target: Rho-associated protein kinase 2 (Homo sapiens) (UniProt O75116); conditions: Compound concentration 1000.0 nM
[42] = target: Serine/threonine-protein kinase PLK3 (Homo sapiens) (UniProt Q9H4B4); conditions: Compound concentration 1000.0 nM
[43] = target: Tyrosine-protein kinase Srms (Homo sapiens) (UniProt Q9H3Y6); conditions: Compound concentration 1000.0 nM

Ribosomal protein S6 kinase alpha-5 (Homo sapiens), sequence (O75582 whole entry, looked up): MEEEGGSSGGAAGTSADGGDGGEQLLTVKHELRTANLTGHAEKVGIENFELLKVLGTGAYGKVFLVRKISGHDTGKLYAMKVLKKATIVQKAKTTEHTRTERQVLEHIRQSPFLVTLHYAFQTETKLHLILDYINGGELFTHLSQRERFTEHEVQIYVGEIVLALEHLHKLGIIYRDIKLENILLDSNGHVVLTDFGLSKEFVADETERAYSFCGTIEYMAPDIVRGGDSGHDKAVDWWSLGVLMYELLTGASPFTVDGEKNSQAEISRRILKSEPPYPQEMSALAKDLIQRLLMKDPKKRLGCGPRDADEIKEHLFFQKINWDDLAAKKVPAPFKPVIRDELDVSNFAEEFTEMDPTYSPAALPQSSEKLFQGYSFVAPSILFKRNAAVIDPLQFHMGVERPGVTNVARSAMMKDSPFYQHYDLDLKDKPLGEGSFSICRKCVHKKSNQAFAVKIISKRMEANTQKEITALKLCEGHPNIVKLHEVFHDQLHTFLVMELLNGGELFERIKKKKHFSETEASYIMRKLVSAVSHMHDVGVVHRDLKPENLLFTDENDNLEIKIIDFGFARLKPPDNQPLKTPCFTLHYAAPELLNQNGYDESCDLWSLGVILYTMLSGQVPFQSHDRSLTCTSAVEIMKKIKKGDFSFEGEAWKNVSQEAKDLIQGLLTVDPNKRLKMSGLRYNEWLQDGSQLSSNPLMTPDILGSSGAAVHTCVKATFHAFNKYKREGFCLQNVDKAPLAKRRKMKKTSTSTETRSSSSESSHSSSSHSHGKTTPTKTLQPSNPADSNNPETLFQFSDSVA
Tyrosine-protein kinase ZAP-70 (Homo sapiens), sequence (P43403 whole entry): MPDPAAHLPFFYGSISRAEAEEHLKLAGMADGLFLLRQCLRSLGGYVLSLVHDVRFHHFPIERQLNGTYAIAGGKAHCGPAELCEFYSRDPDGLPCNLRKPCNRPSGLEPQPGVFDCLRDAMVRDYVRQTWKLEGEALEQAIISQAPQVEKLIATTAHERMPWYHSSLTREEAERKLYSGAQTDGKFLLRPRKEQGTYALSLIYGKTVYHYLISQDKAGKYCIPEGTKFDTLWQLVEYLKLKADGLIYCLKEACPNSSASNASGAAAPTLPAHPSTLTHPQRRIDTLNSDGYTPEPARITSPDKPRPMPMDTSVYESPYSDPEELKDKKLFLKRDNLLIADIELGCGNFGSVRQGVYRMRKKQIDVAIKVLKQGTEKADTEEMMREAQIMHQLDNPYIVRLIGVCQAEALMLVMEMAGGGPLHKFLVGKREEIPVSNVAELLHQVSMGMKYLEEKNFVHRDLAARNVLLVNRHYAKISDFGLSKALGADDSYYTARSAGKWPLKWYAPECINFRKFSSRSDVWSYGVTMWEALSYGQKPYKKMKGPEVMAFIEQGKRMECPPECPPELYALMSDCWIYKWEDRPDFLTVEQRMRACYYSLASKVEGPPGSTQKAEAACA
Proto-oncogene tyrosine-protein kinase receptor Ret (Homo sapiens), P07949 [M918T], sequence (P07949 whole entry M918T): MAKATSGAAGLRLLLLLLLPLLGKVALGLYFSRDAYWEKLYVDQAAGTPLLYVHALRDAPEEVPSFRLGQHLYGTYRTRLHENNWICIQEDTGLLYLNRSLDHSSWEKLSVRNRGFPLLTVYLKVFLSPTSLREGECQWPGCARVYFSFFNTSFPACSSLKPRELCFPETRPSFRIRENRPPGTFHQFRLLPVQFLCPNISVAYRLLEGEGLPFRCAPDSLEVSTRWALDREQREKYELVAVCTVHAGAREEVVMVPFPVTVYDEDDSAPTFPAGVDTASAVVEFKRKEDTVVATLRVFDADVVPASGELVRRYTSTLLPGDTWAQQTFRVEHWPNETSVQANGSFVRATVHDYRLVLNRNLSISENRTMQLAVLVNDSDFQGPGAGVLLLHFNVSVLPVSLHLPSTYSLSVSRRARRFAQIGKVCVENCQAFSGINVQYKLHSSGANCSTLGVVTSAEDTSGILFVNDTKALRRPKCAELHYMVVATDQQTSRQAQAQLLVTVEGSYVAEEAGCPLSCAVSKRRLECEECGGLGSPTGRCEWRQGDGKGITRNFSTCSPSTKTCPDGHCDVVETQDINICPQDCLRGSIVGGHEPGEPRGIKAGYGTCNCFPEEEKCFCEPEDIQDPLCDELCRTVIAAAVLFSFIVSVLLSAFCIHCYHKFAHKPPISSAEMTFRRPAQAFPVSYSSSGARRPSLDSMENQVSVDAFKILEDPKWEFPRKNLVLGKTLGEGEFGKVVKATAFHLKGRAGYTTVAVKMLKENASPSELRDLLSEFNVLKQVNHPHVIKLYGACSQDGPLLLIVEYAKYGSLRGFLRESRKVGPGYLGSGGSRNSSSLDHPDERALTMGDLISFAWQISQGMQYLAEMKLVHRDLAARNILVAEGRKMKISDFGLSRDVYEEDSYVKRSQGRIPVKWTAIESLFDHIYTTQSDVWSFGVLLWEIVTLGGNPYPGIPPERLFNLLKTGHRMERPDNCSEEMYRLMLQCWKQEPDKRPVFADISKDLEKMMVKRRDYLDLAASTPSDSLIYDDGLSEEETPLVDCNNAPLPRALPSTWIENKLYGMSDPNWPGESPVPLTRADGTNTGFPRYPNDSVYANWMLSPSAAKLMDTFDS
cGMP-dependent protein kinase 2 (Homo sapiens), sequence (Q13237 whole entry): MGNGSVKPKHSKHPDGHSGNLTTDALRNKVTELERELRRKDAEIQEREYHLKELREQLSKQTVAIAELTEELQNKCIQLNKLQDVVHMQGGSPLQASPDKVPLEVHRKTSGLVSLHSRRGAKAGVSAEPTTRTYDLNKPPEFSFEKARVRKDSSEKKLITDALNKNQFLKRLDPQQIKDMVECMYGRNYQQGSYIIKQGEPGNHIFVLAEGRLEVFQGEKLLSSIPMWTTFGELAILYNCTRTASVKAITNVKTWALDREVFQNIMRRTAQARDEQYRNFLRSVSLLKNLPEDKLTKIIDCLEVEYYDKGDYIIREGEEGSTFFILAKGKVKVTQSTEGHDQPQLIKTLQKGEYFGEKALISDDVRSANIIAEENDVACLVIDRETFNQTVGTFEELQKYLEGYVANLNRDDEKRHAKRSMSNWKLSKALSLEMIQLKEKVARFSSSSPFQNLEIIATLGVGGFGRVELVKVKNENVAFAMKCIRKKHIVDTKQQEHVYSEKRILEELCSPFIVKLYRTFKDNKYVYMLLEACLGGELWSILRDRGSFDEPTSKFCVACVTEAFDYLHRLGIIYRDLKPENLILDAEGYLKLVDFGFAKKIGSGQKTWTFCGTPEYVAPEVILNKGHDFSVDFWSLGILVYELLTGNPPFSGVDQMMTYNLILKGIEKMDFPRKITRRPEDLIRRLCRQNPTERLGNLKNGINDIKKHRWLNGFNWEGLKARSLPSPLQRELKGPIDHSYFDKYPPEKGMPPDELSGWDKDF
Receptor tyrosine-protein kinase erbB-3 (Homo sapiens), sequence (P21860 whole entry): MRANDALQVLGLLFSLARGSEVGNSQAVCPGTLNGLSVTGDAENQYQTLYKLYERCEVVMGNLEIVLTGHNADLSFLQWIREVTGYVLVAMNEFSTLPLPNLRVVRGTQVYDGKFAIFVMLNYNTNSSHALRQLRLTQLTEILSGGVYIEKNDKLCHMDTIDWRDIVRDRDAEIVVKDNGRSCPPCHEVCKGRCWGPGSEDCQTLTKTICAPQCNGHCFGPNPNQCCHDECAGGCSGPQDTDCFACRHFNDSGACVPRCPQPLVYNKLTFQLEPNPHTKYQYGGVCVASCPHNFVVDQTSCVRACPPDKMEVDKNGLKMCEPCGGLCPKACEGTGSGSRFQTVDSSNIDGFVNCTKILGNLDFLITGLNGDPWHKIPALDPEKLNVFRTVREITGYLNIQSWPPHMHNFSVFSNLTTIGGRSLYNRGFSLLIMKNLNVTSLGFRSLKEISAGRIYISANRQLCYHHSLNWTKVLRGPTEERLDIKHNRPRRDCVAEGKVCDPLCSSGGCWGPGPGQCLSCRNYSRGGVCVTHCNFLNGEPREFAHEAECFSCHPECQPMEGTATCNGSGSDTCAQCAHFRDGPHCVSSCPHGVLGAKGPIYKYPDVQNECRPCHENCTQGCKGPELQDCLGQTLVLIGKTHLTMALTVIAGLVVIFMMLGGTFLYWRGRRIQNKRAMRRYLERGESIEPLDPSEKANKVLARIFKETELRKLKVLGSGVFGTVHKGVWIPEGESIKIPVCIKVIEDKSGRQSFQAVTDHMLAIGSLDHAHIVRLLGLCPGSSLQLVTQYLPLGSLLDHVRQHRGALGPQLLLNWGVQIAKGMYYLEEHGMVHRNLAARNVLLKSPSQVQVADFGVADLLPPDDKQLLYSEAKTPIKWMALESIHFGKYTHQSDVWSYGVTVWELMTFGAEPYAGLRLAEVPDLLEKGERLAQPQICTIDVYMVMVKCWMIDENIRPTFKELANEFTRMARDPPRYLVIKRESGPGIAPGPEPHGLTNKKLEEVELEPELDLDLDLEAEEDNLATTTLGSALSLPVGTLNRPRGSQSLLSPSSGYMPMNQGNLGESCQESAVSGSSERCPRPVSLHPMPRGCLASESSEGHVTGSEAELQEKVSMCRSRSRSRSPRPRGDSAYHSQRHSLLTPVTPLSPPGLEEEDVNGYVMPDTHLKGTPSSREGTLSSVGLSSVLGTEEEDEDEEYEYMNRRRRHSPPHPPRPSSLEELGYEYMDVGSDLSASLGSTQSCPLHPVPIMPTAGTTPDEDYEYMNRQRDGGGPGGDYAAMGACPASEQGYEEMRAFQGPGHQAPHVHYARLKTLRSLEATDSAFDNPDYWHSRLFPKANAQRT
D(1A) dopamine receptor (Homo sapiens), sequence (P21728 whole entry): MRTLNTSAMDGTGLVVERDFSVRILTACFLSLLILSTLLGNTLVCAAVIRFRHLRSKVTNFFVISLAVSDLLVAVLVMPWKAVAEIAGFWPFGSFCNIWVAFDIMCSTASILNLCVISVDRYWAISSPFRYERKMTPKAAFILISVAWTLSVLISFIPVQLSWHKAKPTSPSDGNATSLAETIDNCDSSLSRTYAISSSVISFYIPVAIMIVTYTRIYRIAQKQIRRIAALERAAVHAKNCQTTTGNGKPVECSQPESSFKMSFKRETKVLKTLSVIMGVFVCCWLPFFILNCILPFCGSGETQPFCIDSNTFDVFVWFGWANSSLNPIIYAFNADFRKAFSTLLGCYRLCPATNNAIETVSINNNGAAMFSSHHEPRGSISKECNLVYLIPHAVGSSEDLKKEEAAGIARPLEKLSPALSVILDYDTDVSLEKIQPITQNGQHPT

CN([C@@H]1CCc2c(CC(=O)O)c3cc(S(C)(=O)=O)ccc3n2C1)S(=O)(=O)c1ccc(F)cc1
inactive: residual activity [1] 88% | residual activity [2] 100% | inhibition [3] -2.96% | residual activity [4] 94% | residual activity [5] 98% | residual activity [6] 100% | residual activity [7] 95% | residual activity [8] 100% | residual activity [9] 55% | residual activity [10] 85% | residual activity [11] 100% | residual activity [12] 100% | residual activity [13] 91% | residual activity [14] 100% | residual activity [15] 100% | inhibition [16] 45% | inhibition [17] -6.18% | residual activity [18] 100% | residual activity [19] 100% | residual activity [20] 100% | residual activity [21] 100% | residual activity [22] 100% | residual activity [23] 100% | residual activity [24] 100% | residual activity [25] 91% | residual activity [26] 68% | residual activity [27] 100% | residual activity [28] 100% | residual activity [29] 71% | residual activity [30] 100% | residual activity [31] 100% | residual activity [32] 89% | residual activity [33] 67% | residual activity [34] 87% | residual activity [35] 82% | residual activity [36] 89% | residual activity [37] 96% | residual activity [38] 100% | residual activity [39] 85% | residual activity [40] 100% | residual activity [41] 100% | residual activity [42] 70% | residual activity [43] 88%

CN([C@@H]1CCc2c(CC(=O)O)c3ccccc3n2C1)S(=O)(=O)c1ccc(F)cc1 [MK-7246]
inactive: residual activity [1] 84% | residual activity [2] 100% | inhibition [3] 12.3% | residual activity [4] 95% | residual activity [5] 100% | residual activity [6] 100% | residual activity [7] 100% | residual activity [8] 100% | residual activity [9] 100% | residual activity [10] 95% | residual activity [11] 100% | residual activity [12] 100% | residual activity [13] 85% | residual activity [14] 78% | residual activity [15] 100% | inhibition [16] 27.7% | inhibition [17] -2.68% | residual activity [18] 100% | residual activity [19] 100% | residual activity [20] 100% | residual activity [21] 100% | residual activity [22] 100% | residual activity [23] 100% | residual activity [24] 99% | residual activity [25] 95% | residual activity [26] 91% | residual activity [27] 100% | residual activity [28] 100% | residual activity [29] 79% | residual activity [30] 82% | residual activity [31] 97% | residual activity [32] 96% | residual activity [33] 100% | residual activity [34] 100% | residual activity [35] 100% | residual activity [36] 100% | residual activity [37] 100% | residual activity [38] 100% | residual activity [39] 85% | residual activity [40] 100% | residual activity [41] 100% | residual activity [42] 85% | residual activity [43] 81%
